In US20200138921A1, “METHODS OF PREVENTING AND TREATING DISEASES CHARACTERIZED BY SYNAPTIC DYSFUNCTION AND NEURODEGENERATION INCLUDING ALZHEIMER'S DISEASE” (The Trustees of Columbia University in the City of New York, priority 2017, published 2020):

Tested on: GluR1
Test: Surface GluR1 in hippocampal neurons (biotinylated surface Western blot, immunostaining)
Type: cell-based, rat
Conditions: hippocampal neurons treated with Aβ
Experimental: Cells were fixed in PFA (4%) in […] PBS for 10 minutes at room temperature. Permeabilization was performed using 0.4% Triton X-100 (Sigma) in PBS for 20 minutes. Then, cells were incubated in anti-GluR1 primary antibody (Millipore) in Superblock (Thermo Scientific) with 0.1% Triton X-100 for 12 hours at 4° C. Cells were washed with PBS, and then incubated in goat anti-mouse Alexa 568 in Superblock with 0.1% Triton X-100 for 1 hour at RT. Then cells were mounted onto glass slides using Gel Mount (Biomeda).
The consequences of upregulation of Arc and Ephexin-5 are well characterized. In the case of Arc, one its key function is to regulate postsynaptic trafficking of AMPA receptor subunits, and to regulate spine morphology and network stability (Korb and Finkbeiner 2011).

oAβ: synthetic soluble oligomeric Aβ1-42
levels of surface-expressed GluR1 subunit: significant decrease
